Values of other authors in patent publication US20070213390A1, “HMGCoA reductase inhibitor-angiotensin converting enzyme inhibitor compounds” (pSivida Inc., priority 2005, published 2007).

Biological target: T1, HMGR (HMGCoA reductase) (Homo sapiens, UniProt P04035)
T1 sequence (P04035 426-888 limits assumed): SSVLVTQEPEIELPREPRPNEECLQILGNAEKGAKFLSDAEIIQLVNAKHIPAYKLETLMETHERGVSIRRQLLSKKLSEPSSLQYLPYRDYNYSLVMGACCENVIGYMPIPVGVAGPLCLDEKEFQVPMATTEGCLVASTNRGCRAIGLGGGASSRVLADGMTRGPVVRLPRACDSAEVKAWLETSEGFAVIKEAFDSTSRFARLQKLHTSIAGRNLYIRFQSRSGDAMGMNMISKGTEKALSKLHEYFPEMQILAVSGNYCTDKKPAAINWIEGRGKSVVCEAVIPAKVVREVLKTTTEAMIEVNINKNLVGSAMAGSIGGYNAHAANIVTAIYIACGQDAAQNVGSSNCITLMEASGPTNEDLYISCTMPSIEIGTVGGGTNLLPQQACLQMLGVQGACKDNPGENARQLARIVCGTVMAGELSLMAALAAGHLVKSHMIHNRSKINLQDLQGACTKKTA
Details: substrate of HMGR; read-out: Michaelis constant, Km, for HMG-CoA

In the case of CC(O)(CC(=O)O)CC(=O)SCCNC(=O)CCNC(=O)[C@H](O)C(C)(C)COP(=O)(O)OP(=O)(O)OC[C@H]1O[C@@H](n2cnc3c(N)ncnc32)[C@H](O)[C@@H]1OP(=O)(O)O (stereo partly shown) [HMG-CoA, 3-hydroxy-3-methylglutaryl CoA], the Km is listed as 4 µM.
